Converted amounts (≈) assume the structure as drawn.
Legend:
[1] = test system: Mycobacterium tuberculosis; assay: Antimycobacterial activity against Mycobacterium tuberculosis H37Rv; assay type: functional, organism-based
[2] = test system: Mycobacterium tuberculosis; assay: Bactericidal activity against Mycobacterium tuberculosis H37Rv; assay type: functional
[3] = test system: Mycobacterium tuberculosis; assay: Antimycobacterial activity against Mycobacterium tuberculosis H37Rv after 7 days by microplate alamar blue assay; assay type: functional; conditions: 168 h
[4] = test system: Mycobacterium tuberculosis; assay: Antimycobacterial activity against Mycobacterium tuberculosis H37Rv ATCC 27294 by BACTEC-460 radiometric susceptibility assay; assay type: functional
[5] = test system: Mycobacterium tuberculosis; assay: Antimycobacterial activity against Mycobacterium tuberculosis H37Ra by microplate alamar blue assay; assay type: functional
[6] = test system: Mycobacterium tuberculosis; assay: Antimycobacterial activity against Mycobacterium tuberculosis H37Rv ATCC 27294 after 5 days by microplate alamar blue assay; assay type: functional; conditions: H37Rv ATCC 27294, 120 h
[7] = test system: Mycobacterium tuberculosis; assay: Antimycobacterial activity against Mycobacterium tuberculosis H37Rv ATCC 27294 by microplate alamar blue assay; assay type: functional
[8] = test system: Mycobacterium tuberculosis; assay: Antimycobacterial activity against p-aminosalicyclic acid-resistant Mycobacterium tuberculosis H37Rv ATCC 35821; assay type: functional

| Compound | IC50 [1] [µM] | IC90 [1] [µM] | MIC [1] [µM] | also measured |
| --- | --- | --- | --- | --- |
| CCc1nc(N)nc(N)c1-c1ccc(Cl)cc1 [PYRIMETHAMINE] | 23.3 | 35.9 | 50 (≈ 12.4 µg/mL) | – |
| CC1(C)CC[C@]2(COC(=O)/C=C/c3ccccc3)CC[C@]3(C)C(=CC[C@@H]4[C@@]5(C)CCCNC(C)(C)[C@@H]5CC[C@]43C)[C@H]2C1 | 8 | 12 | 12 (≈ 6.86 µg/mL) | MBC [2]: 12 µg/mL (≈ 21 µM) |
| C=C(C)[C@@H]1CC[C@]2(CO)CC[C@]3(C)[C@H](CC[C@@H]4[C@@]5(C)CC[C@H](O)C(C)(C)[C@@H]5CC[C@]43C)[C@@H]12 [BETULIN] | – | – | – | MIC90 [3]: 25 to 30 µg/mL (≈ 56.5 to 67.8 µM) |
| C[C@H]1[C@H](C)CC[C@]2(C(=O)O)CC[C@]3(C)C(=CC[C@@H]4[C@@]5(C)CC[C@H](O)C(C)(C)[C@@H]5CC[C@]43C)[C@H]12 [URSOLIC ACID] | – | – | – | MIC99 [1]: 100 µg/mL (≈ 219 µM); MIC99 [4]: 50 µg/mL (≈ 109 µM) |
| CC1(C)CC[C@]2(COC(=O)CCC(=O)O)CC[C@]3(C)C(=CC[C@@H]4[C@@]5(C)CCCNC(C)(C)[C@@H]5CC[C@]43C)[C@H]2C1 | 20.6 | 82.5 | 100 (≈ 54.2 µg/mL) | – |
| C=C(C)[C@@H]1CC[C@]2(C(=O)O)CC[C@]3(C)[C@H](CC[C@@H]4[C@@]5(C)CC[C@H](O)C(C)(C)[C@@H]5CC[C@]43C)[C@@H]12 [BETULINIC ACID] | – | – | – | MIC90 [3]: 25 µg/mL (≈ 54.7 µM); MIC [5]: 50 µg/mL (≈ 109 µM); MIC [6]: > 100 µg/mL; MIC [7]: 62 µg/mL (≈ 136 µM) |
| COC(=O)[C@]12CC[C@@H](C(C)CO)[C@@H]1[C@H]1CC[C@@H]3[C@@]4(C)CCC(=O)NC(C)(C)[C@@H]4CC[C@@]3(C)[C@]1(C)CC2 (some centres undefined) | 5.7 | 18.3 | 12.5 (≈ 6.27 µg/mL) | – |
| C/C(=N\O)[C@@H]1CC[C@]2(CO)CC[C@]3(C)[C@H](CC[C@@H]4[C@@]5(C)CCCNC(C)(C)[C@@H]5CC[C@]43C)[C@@H]12 | 43 | 41 | 43 (≈ 19.7 µg/mL) | – |
| CC[C@@H](CO)NCCN[C@@H](CC)CO [ETHAMBUTOL] | 1.25 | 1.78 | 6.25 (≈ 1.28 µg/mL) | – |
| COc1ccc(/C=C/C(=O)OC[C@]23CC[C@@H](C)[C@H](C)[C@@H]2C2=CC[C@@H]4[C@@]5(C)CCCNC(C)(C)[C@@H]5CC[C@@]4(C)[C@]2(C)CC3)cc1 | 1.8 | 2.5 | 3.12 (≈ 1.88 µg/mL) | MBC [2]: 12 µg/mL (≈ 19.9 µM) |
| C=C(C)[C@@H]1CC[C@]2(CO)CC[C@]3(C)[C@H](CC[C@@H]4[C@@]5(C)CCCNC(C)(C)[C@@H]5CC[C@]43C)[C@@H]12 | 10.9 | 12.4 | 10 (≈ 4.42 µg/mL) | MBC [2]: 10 µg/mL (≈ 22.6 µM); MIC [8]: 5 µg/mL (≈ 11.3 µM) |
| C[C@H]1[C@H](C)CC[C@]2(CO)CC[C@]3(C)C(=CC[C@@H]4[C@@]5(C)CCCNC(C)(C)[C@@H]5CC[C@]43C)[C@@H]12 | 4.9 | 14.5 | 12.5 (≈ 5.52 µg/mL) | MBC [2]: 20 µg/mL (≈ 45.3 µM) |
| C[C@H]1[C@H](C)CC[C@]2(C(=O)O)CC[C@]3(C)C(=CC[C@@H]4[C@@]5(C)CC[C@H](OC(=O)/C=C/c6ccc(O)cc6)C(C)(C)[C@@H]5CC[C@]43C)[C@H]12 | – | – | – | MIC [5]: 6.25 µg/mL (≈ 10.4 µM) |
| C=C(C)[C@@H]1CC[C@]2(C(=O)O)CC[C@]3(C)[C@H](CC[C@@H]4[C@@]5(C)CC[C@H](OC(=O)/C=C/c6ccc(O)cc6)C(C)(C)[C@@H]5CC[C@]43C)[C@@H]12 | – | – | – | MIC [5]: 6.25 µg/mL (≈ 10.4 µM) |
| N[C@@H]1CONC1=O [CYCLOSERINE] | 20.8 | 33.1 | 50 (≈ 5.1 µg/mL) | – |
| NCC[C@H](O)C(=O)N[C@@H]1C[C@H](N)[C@@H](O[C@H]2O[C@H](CN)[C@@H](O)[C@H](O)[C@H]2O)[C@H](O)[C@H]1O[C@H]1O[C@H](CO)[C@@H](O)[C@H](N)[C@H]1O [AMIKACIN] | 0.08 | 0.09 | 0.16 (≈ 0.0937 µg/mL) | – |
| COc1cc(/C=C/C(=O)O)ccc1O.C[C@H]1[C@H](C)CC[C@]2(C(=O)O)CC[C@]3(C)C(=CC[C@@H]4[C@@]5(C)CC[C@H](O)C(C)(C)[C@@H]5CC[C@]43C)[C@H]12 | – | – | – | MIC [5]: 3.13 µg/mL |
| C=C(C)[C@@H]1CC[C@]2(COC(=O)/C=C/c3ccccc3)CC[C@]3(C)[C@H](CC[C@@H]4[C@@]5(C)CCCNC(C)(C)[C@@H]5CC[C@]43C)[C@@H]12 | 6.7 | 7.7 | 10 (≈ 5.72 µg/mL) | MBC [2]: 4 µg/mL (≈ 6.99 µM) |
| NNC(=O)c1ccncc1 [ISONIAZID] | 0.12 | 0.19 | 0.31 (≈ 0.0425 µg/mL) | – |
| C=C(C)[C@@H]1CC[C@]2(COC(=O)/C=C/c3ccc(OC)cc3)CC[C@]3(C)[C@H](CC[C@@H]4[C@@]5(C)CCCNC(C)(C)[C@@H]5CC[C@]43C)[C@@H]12 | 160 | > 200 | > 200 | – |
| C=C(C)[C@@H]1CC[C@]2(C(=O)O)CC[C@]3(C)[C@H](CC[C@@H]4[C@@]5(C)C[C@@H](O)[C@H](O)C(C)(C)[C@@H]5CC[C@]43C)[C@@H]12 [ALPHITOLIC ACID] | – | – | – | MIC90 [3]: 12.5 µg/mL (≈ 26.4 µM) |

| Compound | IC50 [1] [µM] | IC90 [1] [µM] | MIC [1] [µM] | also measured |
| --- | --- | --- | --- | --- |
| COC(=O)[C@]12CC[C@@H](C(C)COC(=O)/C=C/c3ccccc3)[C@@H]1[C@H]1CC[C@@H]3[C@@]4(C)CCC(=O)NC(C)(C)[C@@H]4CC[C@@]3(C)[C@]1(C)CC2 (some centres undefined) | > 200 | > 200 | > 200 | – |
| COC(=O)[C@]12CCC(C)(C)C[C@@H]1C1=CC[C@@H]3[C@@]4(C)CCC(=O)NC(C)(C)[C@@H]4CC[C@@]3(C)[C@]1(C)CC2 | – | – | > 10 | – |
| CC(=O)[C@@H]1CC[C@]2(CO)CC[C@]3(C)[C@H](CC[C@@H]4[C@@]5(C)CCCNC(C)(C)[C@@H]5CC[C@]43C)[C@@H]12 | 17.7 | 56.9 | 50 (≈ 22.2 µg/mL) | – |
| COC(=O)[C@]12CC[C@@H](C(C)COC(=O)CCC(=O)O)[C@@H]1[C@H]1CC[C@@H]3[C@@]4(C)CCC(=O)NC(C)(C)[C@@H]4CC[C@@]3(C)[C@]1(C)CC2 (some centres undefined) | 23 | 27 | 28 (≈ 16.9 µg/mL) | – |
| C=C(C)[C@@H]1CC[C@]2(CO)CC[C@]3(C)[C@H](CC[C@@H]4[C@@]5(C)CCCN(CCCN)C(C)(C)[C@@H]5CC[C@]43C)[C@@H]12 | – | – | > 10 | – |
| C=C(C)[C@@H]1CC[C@]2(C)CC[C@]3(C)[C@H](CC[C@@H]4[C@@]5(C)CC[C@H](O)C(C)(C)[C@@H]5CC[C@]43C)[C@@H]12 [LUPEOL] | – | – | – | MIC90 [7]: > 64 µg/mL |
| C[C@H]1[C@H](C)CC[C@]2(COC(=O)CCC(=O)O)CC[C@]3(C)C(=CC[C@@H]4[C@@]5(C)CCCNC(C)(C)[C@@H]5CC[C@]43C)[C@@H]12 | 92 | 110 | 111 (≈ 60.1 µg/mL) | – |
| C=C(C)[C@@H]1CC[C@]2(C(=O)OC)CC[C@]3(C)[C@H](CC[C@@H]4[C@@]5(C)CCC(=O)NC(C)(C)[C@@H]5CC[C@]43C)[C@@H]12 | – | – | > 10 | – |
| CC1(C)CC[C@]2(C(=O)O)CC[C@]3(C)C(=CC[C@@H]4[C@@]5(C)CC[C@H](O)C(C)(C)[C@@H]5CC[C@]43C)[C@@H]2C1 [OLEANOLIC_ACID] | – | – | – | MIC [5]: 25 µg/mL (≈ 54.7 µM); MIC [6]: 50 µg/mL (≈ 109 µM) |
| C[C@H]1[C@H](C)CC[C@]2(COC(=O)/C=C/c3ccccc3)CC[C@]3(C)C(=CC[C@@H]4[C@@]5(C)CCCNC(C)(C)[C@@H]5CC[C@]43C)[C@@H]12 | 3.8 | 5.2 | 6.25 (≈ 3.57 µg/mL) | MBC [2]: 14 µg/mL (≈ 24.5 µM) |
| COC(=O)[C@]12CC[C@@H](C)[C@H](C)[C@@H]1C1=CC[C@@H]3[C@@]4(C)CCC(=O)NC(C)(C)[C@@H]4CC[C@@]3(C)[C@]1(C)CC2 | – | – | > 10 | – |
| CC(COC(=O)/C=C/c1ccccc1)[C@@H]1CC[C@]2(COC(=O)/C=C/c3ccccc3)CC[C@]3(C)[C@H](CC[C@@H]4[C@@]5(C)CCCNC(C)(C)[C@@H]5CC[C@]43C)[C@@H]12 (some centres undefined) | > 200 | > 200 | 200 (≈ 144 µg/mL) | – |
| C=C(C)[C@@H]1CC[C@]2(COC(=O)CCC(=O)O)CC[C@]3(C)[C@H](CC[C@@H]4[C@@]5(C)CCCNC(C)(C)[C@@H]5CC[C@]43C)[C@@H]12 | 40 | 70 | 61 (≈ 33.1 µg/mL) | MBC [2]: 11 µg/mL (≈ 20.3 µM) |
| COc1ccc(/C=C/C(=O)OC[C@]23CCC(C)(C)C[C@@H]2C2=CC[C@@H]4[C@@]5(C)CCCNC(C)(C)[C@@H]5CC[C@@]4(C)[C@]2(C)CC3)cc1 | > 100 | > 100 | > 100 | – |
| CC1(C)CC[C@]2(C(=O)O)CC[C@]3(C)C(=CC[C@@H]4[C@@]5(C)CC[C@H](OC(=O)/C=C/c6ccc(O)cc6)C(C)(C)[C@@H]5CC[C@]43C)[C@@H]2C1 | – | – | – | MIC [5]: 6.25 µg/mL (≈ 10.4 µM) |
| CC1(C)CC[C@@]23CC[C@]4(C)C(OC2)(C(=O)C[C@@H]2[C@@]5(C)CCCNC(C)(C)[C@@H]5CC[C@]24C)[C@H]3C1 | 11 | 53 | 29 (≈ 13.2 µg/mL) | – |
| COC(=O)[C@]12CCC(C)(C)C[C@@H]1C1/C(=N/O)C[C@@H]3[C@@]4(C)CCC(=O)NC(C)(C)[C@@H]4CC[C@@]3(C)[C@]1(C)CC2 (some centres undefined) | 54 | 97 | 97 (≈ 49.9 µg/mL) | – |
| CC(CO)[C@@H]1CC[C@]2(CO)CC[C@]3(C)[C@H](CC[C@@H]4[C@@]5(C)CCCNC(C)(C)[C@@H]5CC[C@]43C)[C@@H]12 (some centres undefined) | 4.6 | 14.1 | 12.5 (≈ 5.75 µg/mL) | – |
| CC1(C)CC[C@]2(CO)CC[C@]3(C)C(=CC[C@@H]4[C@@]5(C)CCCNC(C)(C)[C@@H]5CC[C@]43C)[C@H]2C1 | 3.8 | 11.5 | 12.5 (≈ 5.52 µg/mL) | MBC [2]: 20 µg/mL (≈ 45.3 µM) |
| CO[C@H]1/C=C/O[C@@]2(C)Oc3c(C)c(O)c4c(O)c(c(/C=N/N5CCN(C)CC5)c(O)c4c3C2=O)NC(=O)/C(C)=C\C=C\[C@H](C)[C@H](O)[C@@H](C)[C@@H](O)[C@@H](C)[C@H](OC(C)=O)[C@@H]1C [RIFAMPIN] | 0.02 | 0.03 | 0.04 (≈ 0.0329 µg/mL) | – |
